Common to all, as to experiment: KINOMEscan
Common to all, as to type: binding
Common to all, as to settings: read-out: % control activity remaining

Experiment [1] has as its target T1, RPS6KA4(Kin.Dom.1-N-terminal) (Homo sapiens, UniProt O75676).
T1 construct: RPS6KA4(Kin.Dom.1-N-terminal); purchased Eurofins DiscoverX KINOMEscan
T1 sequence (O75676 33-301 limits assumed): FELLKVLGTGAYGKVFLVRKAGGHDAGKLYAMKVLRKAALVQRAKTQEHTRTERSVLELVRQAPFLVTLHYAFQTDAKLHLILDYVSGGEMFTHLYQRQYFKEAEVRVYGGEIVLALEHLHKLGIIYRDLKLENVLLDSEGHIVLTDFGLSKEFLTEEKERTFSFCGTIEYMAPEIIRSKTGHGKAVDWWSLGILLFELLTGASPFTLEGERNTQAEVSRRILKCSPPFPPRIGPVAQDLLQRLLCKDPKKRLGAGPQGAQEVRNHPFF

The target in experiment [2] is T2, ALK(C1156Y) (Homo sapiens, UniProt Q9UM73, C1156Y).
T2 construct: purchased Eurofins DiscoverX KINOMEscan

Experiment [3] deals with T3, ACVR1 (Homo sapiens, UniProt Q04771).
T3 construct: purchased Eurofins DiscoverX KINOMEscan
T3 sequence (Q04771 21-509): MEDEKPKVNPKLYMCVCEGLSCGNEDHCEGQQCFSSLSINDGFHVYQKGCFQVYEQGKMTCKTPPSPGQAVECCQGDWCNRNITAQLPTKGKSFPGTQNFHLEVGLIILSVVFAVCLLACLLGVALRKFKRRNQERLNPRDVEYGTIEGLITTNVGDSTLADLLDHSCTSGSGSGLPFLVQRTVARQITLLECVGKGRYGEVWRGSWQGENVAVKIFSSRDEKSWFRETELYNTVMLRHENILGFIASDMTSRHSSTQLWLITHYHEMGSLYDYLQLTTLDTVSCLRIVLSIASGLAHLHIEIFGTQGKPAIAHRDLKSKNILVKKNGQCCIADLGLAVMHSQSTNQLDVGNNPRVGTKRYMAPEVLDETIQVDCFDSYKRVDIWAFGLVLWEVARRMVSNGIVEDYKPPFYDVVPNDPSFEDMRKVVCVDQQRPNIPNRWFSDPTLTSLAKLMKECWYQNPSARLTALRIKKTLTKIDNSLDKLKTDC

For experiment [4], the target named is T4, DCAMKL3 (Homo sapiens, UniProt Q9C098).
T4 construct: purchased Eurofins DiscoverX KINOMEscan
T4 sequence (Q9C098 1-648): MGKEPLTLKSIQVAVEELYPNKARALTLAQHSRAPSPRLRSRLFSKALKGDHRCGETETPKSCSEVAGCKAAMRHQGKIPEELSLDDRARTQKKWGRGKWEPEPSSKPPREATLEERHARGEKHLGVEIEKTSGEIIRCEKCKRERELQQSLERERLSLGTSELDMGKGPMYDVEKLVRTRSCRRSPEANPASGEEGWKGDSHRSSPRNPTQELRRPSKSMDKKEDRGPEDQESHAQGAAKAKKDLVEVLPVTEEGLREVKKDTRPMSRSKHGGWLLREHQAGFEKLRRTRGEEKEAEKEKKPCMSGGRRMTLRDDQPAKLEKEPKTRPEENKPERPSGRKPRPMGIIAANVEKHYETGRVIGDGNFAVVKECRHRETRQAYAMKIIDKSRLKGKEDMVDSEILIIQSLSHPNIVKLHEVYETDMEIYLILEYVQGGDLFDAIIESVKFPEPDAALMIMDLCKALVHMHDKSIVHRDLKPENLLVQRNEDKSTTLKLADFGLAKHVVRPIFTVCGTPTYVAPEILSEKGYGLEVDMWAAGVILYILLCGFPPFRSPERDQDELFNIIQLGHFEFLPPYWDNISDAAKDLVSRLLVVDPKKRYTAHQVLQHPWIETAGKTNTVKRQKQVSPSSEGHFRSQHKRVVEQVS

Experiment [5] has as its target T5, ABL1(Q252H)-phosphorylated (Homo sapiens, UniProt P00519, Q252H).
T5 construct: purchased Eurofins DiscoverX KINOMEscan

Experiment [6] concerns the target T6, FGFR2 (Homo sapiens, UniProt P21802).
T6 construct: purchased Eurofins DiscoverX KINOMEscan

In experiment [7] the target is T7, ERBB3 (Homo sapiens, UniProt P21860).
T7 construct: purchased Eurofins DiscoverX KINOMEscan

Experiment [8] addresses T8, NEK2 (Homo sapiens, UniProt P51955).
T8 construct: purchased Eurofins DiscoverX KINOMEscan
T8 sequence (P51955 1-445): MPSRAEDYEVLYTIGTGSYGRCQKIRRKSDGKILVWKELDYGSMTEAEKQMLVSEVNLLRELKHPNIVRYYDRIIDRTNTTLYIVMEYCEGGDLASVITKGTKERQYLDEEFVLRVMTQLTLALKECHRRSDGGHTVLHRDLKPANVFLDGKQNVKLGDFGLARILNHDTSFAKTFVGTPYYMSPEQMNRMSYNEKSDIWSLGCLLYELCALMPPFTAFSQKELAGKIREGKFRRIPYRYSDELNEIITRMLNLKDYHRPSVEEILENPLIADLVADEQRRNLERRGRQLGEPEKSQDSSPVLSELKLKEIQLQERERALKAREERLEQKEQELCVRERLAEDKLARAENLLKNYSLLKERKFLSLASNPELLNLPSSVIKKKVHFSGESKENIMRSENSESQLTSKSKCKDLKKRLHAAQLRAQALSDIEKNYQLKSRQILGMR

In experiment [9] the target is T9, MAP4K5 (Homo sapiens, UniProt Q9Y4K4).
T9 construct: purchased Eurofins DiscoverX KINOMEscan

In experiment [10] the target is T10, TESK1 (Homo sapiens, UniProt Q15569).
T10 construct: purchased Eurofins DiscoverX KINOMEscan

Experiment [11] deals with T11, EGFR(L747-E749del, A750P) (Homo sapiens, UniProt P00533, A750P/DEL747-749).
T11 construct: purchased Eurofins DiscoverX KINOMEscan
T11 sequence (P00533 with tags, fused parts or gaps A750P/DEL747-749 limits assumed): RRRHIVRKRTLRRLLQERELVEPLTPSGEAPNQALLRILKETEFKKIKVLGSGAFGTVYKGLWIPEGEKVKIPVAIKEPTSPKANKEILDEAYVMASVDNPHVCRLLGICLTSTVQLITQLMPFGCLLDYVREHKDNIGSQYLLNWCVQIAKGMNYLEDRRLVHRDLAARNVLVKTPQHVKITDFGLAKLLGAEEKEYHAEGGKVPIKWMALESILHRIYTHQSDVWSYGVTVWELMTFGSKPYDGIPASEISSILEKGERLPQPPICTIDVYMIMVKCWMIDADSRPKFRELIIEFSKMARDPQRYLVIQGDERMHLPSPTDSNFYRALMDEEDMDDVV

T7 sequence (P21860 20-1342): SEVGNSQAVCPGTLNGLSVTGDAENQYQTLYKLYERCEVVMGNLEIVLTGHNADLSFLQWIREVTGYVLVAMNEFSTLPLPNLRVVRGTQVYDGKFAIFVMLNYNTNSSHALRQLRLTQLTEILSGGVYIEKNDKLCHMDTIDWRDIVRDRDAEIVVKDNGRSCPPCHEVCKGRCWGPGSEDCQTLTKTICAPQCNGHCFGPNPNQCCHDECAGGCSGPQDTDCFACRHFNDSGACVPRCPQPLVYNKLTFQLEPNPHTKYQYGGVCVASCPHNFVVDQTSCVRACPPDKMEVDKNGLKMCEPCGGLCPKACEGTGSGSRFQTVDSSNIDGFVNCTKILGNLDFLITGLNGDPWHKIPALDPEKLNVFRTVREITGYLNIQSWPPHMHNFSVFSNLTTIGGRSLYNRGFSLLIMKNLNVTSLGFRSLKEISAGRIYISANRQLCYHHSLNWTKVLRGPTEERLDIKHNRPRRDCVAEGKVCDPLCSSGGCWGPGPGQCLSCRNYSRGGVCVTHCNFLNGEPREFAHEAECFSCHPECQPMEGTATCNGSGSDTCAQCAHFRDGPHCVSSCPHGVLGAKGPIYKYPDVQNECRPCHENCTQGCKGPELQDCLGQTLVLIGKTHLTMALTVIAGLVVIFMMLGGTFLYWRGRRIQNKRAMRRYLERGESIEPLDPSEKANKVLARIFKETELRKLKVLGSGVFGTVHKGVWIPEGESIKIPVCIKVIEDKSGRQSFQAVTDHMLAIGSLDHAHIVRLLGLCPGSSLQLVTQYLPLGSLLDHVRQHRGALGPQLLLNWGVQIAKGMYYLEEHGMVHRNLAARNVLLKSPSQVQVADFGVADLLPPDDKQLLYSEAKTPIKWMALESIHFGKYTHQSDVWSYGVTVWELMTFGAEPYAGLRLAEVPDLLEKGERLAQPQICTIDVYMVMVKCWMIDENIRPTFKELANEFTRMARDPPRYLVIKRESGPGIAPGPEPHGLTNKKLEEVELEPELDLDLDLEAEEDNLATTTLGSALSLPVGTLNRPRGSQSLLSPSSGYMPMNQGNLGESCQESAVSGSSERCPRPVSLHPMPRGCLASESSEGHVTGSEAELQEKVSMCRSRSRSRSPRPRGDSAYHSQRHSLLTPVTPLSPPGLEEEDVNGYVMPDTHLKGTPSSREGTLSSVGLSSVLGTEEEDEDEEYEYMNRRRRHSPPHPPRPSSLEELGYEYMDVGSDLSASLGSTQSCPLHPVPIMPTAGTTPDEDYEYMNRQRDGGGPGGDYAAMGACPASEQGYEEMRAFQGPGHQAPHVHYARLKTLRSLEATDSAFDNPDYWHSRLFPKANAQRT
T6 sequence (P21802 22-821): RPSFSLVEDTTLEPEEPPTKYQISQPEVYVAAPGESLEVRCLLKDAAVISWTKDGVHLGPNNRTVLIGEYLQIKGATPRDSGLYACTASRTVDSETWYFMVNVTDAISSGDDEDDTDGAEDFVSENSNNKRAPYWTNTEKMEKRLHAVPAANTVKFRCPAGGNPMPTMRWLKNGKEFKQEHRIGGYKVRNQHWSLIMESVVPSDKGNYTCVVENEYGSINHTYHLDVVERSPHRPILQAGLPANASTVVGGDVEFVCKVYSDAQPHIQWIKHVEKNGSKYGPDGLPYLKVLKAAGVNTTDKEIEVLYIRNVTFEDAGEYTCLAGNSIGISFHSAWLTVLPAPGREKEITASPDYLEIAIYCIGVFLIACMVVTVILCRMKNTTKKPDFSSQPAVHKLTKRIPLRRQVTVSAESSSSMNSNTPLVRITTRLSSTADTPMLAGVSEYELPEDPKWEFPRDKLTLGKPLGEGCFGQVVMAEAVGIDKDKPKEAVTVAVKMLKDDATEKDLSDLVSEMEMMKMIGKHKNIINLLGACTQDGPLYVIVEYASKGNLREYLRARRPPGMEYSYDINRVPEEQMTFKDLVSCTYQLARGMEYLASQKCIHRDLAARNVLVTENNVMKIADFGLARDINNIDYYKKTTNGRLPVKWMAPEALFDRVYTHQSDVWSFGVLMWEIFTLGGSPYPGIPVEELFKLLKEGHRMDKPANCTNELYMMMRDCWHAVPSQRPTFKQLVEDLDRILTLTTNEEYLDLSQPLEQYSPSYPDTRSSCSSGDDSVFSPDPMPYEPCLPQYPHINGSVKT
T2 sequence (Q9UM73 19-1620 C1156Y): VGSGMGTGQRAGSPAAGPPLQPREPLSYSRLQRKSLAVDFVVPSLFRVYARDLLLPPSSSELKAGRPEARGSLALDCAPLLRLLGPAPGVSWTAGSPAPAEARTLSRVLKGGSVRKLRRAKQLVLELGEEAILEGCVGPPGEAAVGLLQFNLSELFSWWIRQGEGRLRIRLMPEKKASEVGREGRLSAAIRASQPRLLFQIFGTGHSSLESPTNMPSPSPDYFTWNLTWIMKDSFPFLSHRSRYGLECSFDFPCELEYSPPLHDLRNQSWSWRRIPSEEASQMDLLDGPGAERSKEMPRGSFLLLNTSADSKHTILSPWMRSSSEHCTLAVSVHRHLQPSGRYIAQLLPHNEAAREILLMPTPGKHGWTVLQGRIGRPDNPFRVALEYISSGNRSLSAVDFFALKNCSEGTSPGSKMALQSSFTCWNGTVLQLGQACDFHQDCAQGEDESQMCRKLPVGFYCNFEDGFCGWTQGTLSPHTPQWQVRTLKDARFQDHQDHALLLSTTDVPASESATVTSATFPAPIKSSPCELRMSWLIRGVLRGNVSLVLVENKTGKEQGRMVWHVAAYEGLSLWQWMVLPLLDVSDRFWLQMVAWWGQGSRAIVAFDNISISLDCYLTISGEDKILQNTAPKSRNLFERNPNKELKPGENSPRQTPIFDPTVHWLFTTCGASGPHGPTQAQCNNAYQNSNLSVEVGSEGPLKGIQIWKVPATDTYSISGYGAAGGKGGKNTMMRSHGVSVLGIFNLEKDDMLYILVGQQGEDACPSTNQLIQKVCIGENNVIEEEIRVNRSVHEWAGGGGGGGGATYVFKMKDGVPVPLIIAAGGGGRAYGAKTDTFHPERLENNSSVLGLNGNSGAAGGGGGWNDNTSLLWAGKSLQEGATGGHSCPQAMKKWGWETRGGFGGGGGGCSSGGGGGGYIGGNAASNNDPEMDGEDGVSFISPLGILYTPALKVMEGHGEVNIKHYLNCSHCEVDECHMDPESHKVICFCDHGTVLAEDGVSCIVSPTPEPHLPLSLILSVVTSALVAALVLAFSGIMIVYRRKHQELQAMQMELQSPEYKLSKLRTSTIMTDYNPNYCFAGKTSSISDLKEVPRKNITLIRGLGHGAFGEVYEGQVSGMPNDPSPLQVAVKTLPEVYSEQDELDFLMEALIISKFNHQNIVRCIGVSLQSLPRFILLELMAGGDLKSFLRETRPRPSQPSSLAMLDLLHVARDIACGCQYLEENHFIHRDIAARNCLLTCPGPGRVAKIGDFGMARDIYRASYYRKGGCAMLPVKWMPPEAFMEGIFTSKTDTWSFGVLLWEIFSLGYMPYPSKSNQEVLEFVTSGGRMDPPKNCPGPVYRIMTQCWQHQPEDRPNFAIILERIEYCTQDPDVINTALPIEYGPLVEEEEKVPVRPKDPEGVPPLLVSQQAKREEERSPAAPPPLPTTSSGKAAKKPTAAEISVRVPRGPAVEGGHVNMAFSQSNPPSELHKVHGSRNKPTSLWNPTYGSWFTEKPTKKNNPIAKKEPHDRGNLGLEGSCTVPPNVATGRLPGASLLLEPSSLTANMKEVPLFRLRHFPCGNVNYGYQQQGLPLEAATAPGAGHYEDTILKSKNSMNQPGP
T10 sequence (Q15569 whole entry): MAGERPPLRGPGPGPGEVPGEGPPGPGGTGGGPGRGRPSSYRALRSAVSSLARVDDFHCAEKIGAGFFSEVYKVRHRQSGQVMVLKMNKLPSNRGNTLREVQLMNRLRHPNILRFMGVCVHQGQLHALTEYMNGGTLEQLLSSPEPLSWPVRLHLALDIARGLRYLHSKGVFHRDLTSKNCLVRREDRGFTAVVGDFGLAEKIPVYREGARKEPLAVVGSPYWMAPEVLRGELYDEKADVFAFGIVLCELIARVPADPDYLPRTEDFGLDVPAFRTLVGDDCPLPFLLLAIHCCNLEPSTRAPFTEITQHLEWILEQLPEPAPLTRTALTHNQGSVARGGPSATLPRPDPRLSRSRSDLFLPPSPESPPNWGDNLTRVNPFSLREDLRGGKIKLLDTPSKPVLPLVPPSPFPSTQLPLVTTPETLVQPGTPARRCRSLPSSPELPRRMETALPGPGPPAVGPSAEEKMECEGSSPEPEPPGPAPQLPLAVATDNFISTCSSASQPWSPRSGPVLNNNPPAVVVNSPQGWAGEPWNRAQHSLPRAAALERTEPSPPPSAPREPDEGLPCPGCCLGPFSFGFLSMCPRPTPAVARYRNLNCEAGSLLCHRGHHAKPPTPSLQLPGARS

`Clc1cc(NCC2CC2)c2ncc(-c3ccc4[nH]ncc4c3)n2n1` [compound 2, 6-Chloro-N-(cyclopropylmethyl)-3-(1H-indazol-5-yl)imidazo[1,2-b]pyridazin-8-amine]: the remaining binding at 1 µM came out at 100% in experiment [1]; 88% in experiment [2]; 90% in experiment [3]; 100% in experiment [4]; 78% in [5]; 85% in [6]. Also, the remaining binding at 1 µM in experiment [7] was 96%; in experiment [8], 100%; in experiment [9] it was 98%; in [10], 92%; in [11], 87%.

Take `O=C(CN1CCOCC1)N[C@H]1CC[C@H](Nc2cc(Cl)nn3c(-c4ccc5[nH]ncc5c4)cnc23)CC1` [compound 26]: the remaining binding at 1 µM came out at 99% in experiment [1]; 64% in [2]; 95% in [3]; 100% in [4]; 46% in experiment [5]; 91% in experiment [6]. Moreover, the remaining binding at 1 µM in experiment [7] is 99%; in [8], 92%; in [9], 87%; in [10], 91%; in experiment [11], 83%.

With `CN1CCC(CNc2cc(Cl)nn3c(-c4cc5nc(Nc6ccccc6)[nH]c5cc4F)cnc23)CC1` [compound 31, 6-Chloro-3-(6-fluoro-2-(phenylamino)-1H-benzo[d]imidazol-5-yl)-N-((1-methylpiperidin-4-yl)methyl)imidazo[1,2-b]pyridazin-8-amine], the remaining binding at 1 µM in [1] turned out to be 91%; in [2] it was 91%; in experiment [3], 99%; in experiment [4], 100%; in experiment [5], 79%; in experiment [6] it was 84%. The remaining binding at 1 µM in [7] is 71%; in experiment [8], 92%; in experiment [9], 100%; in experiment [10], 100%; in [11], 81%.

Source of the values: article PMC6437697 (Journal of Medicinal Chemistry, 2019).
